Measured values from article PMC10536132, “Arginine Gemini-Based Surfactants for Antimicrobial and Antibiofilm Applications: Molecular Interactions, Skin-Related Anti-Enzymatic Activity and Cytotoxicity” (Molecules, 2023).
Like-named read-outs stand apart in the source and are kept apart here. Marks after values point to notes of the source that are not given here.

How the values were obtained:
[1] = target: porcine pancreatic elastase (Sus scrofa, UniProt P00772); test: Elastase inhibitory assay; type: biochemical; settings: 40 µL of 1000 µg/mL stock; EGCG 250 μM
Sequence of porcine pancreatic elastase (P00772 27-266): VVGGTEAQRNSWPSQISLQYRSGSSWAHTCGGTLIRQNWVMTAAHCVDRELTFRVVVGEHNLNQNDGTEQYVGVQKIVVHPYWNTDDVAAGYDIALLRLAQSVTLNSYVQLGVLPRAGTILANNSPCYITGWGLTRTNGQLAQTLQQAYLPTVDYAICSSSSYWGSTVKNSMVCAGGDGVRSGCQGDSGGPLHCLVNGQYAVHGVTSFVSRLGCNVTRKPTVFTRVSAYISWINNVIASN
Experimental: The elastase inhibition was tested according to the method described by […] et al.. First, a stock solution of each surfactant at 1000 μg/mL was prepared in sterile ultrapure water. A stock solution of porcine pancreatic elastase at 3.33 mg/mL in sterile ultrapure water was also prepared. The substrate […] (Ala) 3-p-nitroanilide was dissolved in 0.2 mM Tris-HCl buffer solution (pH 8.0). The samples (40 μL) were then diluted and incubated together with the enzyme for 15 min prior to the substrate addition. Negative control was sterile ultrapure water, while EGCG (250 μM or 0.114 mg/mL) was used as the positive control. The absorbance at λ = 410 nm was measured immediately after the substrate addition and continuously during the next 2 h using an Elx800 Microplate Reader (Biotek®). […] The anti-elastase activity (in %), determined in triplicate, was calculated according to the following equation:(2) Elastase inhibitory activity %=A1-A2/A1×100 where A1 and A2 represent the absorbance in the absence and presence of the testing samples, respectively.

[2] = parameters: method as in doi:10.1021/la981295l; settings: cited from earlier work
[3] = Cell viability, NRU assay; type: cell-based; settings: human, A431 cells (squamous cell carcinoma), A431, surfactant in solution at 35.6 µg/mL, read-out: cellular viability
Experimental: (§1) The immortal human keratinocyte (HaCaT) and the squamous cell carcinoma (A431) were obtained from Celltec, University of Barcelona. The cells were grown in DMEM medium (4.5 g/L glucose) supplemented with 10% (v/v) FBS, 2 mM L-glutamine, 100 U/mL of penicillin and 100 μg/mL of streptomycin at 37 °C under 5% CO2. Cells were routinely cultured in 75 cm^2 culture flasks and were trypsinized using trypsin-EDTA when reached approximately 80% of confluence.
(§2) HaCaT cells (1 × 10^5 cells/mL) and A431 cells (5 × 10^4 cells/mL) were grown at the defined densities into the central 60 wells of a 96-well microplate. Cells were incubated for 24 h under 5% CO2 at 37 °C. The medium was then removed and the cells were incubated with the surfactants (100 μL), previously diluted 1:1 (v/v), reaching a concentration of […] in DMEM medium supplemented with 5% FBS using two different colorimetric methods for quantification, as follows.
(§3) The accumulation of the neutral red dye in the lysosomes of viable, undamaged cells constitutes the basis of the neutral red uptake (NRU) assay. After the cells were incubated for 24 h with the corresponding systems at 35.6 µg/mL, the medium was removed and the surfactants´ solutions were incubated for 3 h with the NRU dye solution (50 μg/mL) dissolved in the medium without FBS and phenol red (Lonza). Cells were then washed with sterile PBS, followed by the addition of 100 μL of a solution containing 50% ethanol absolute and 1% acetic acid in distilled water to extract the non-adhered dye. The microplates were then stirred for 5 min at 25 °C to promote the dissolution. Finally, the absorbance of the resulting solutions was measured at λ = 550 nm using a Bio-Rad 550 microplate reader (Hercules, CA, USA).

[4] = parameters: method as in doi:10.1021/la981295l; settings: cited from earlier work; remark: listed apart in the source
[5] = parameters: method as in doi:10.1021/la981295l; settings: cited from earlier work; remark: listed apart in the source
[6] = Apparent pKa by direct titration with NaOH; type: physicochemical; settings: aqueous solution, concentration above the minimum aggregation concentration; pH at semi-equivalence point
Experimental: In order to determine the ionization state of these gemini surfactants at the pH used to investigate their biological properties, the apparent acid pKa was determined for each of them. The pKap value has been determined by means of a direct titration with NaOH of an aqueous solution of each compound. The surfactant concentrations used were in all cases higher than the minimum aggregation concentration, thus avoiding possible deviations in the pK value due to the monomer–aggregate balance. The pKap values can be estimated from the pH at the semi-equivalence point that is reached when the molar ratio of protonated and non-protonated species is 1:1. In these conditions, we have that the pH = pKa.
The pKa value of each compound has been determined by means of a direct titration with NaOH of an aqueous solution of each compound. The pH was measured using the pH electrode Thermo Electron Corporation ORION 8103SC and the temperature was controlled by a thermostatic bath, Heto CBN 8-30. The pKa values can be estimated from the pH at the semi-equivalence point, which contains a 1:1 molar ratio of protonated and non-protonated species; at this point, pH = pKap.

bovine hyaluronidase = test: Hyaluronidase inhibitory activity; type: biochemical; settings: negative inhibition values
Experimental: The hyaluronidase inhibitory activity was performed according to the method used by Altinyay et al. with some modifications. Briefly, a work solution containing bovine hyaluronidase (7900 units/mL) in 0.1 M acetate buffer (pH 3.6) was prepared. Fifty microliters of the work solution were mixed 1:1 with the surfactants’ solution in 5% DMSO. For the negative control, 50 μL of 5% DMSO was used, while EGCG was used as positive control. After 20 min of incubation at 37 °C, 50 μL of calcium chloride (12.5 mM) was added to the mixture and again incubated for 20 min at 37 °C. At that point, 250 μL sodium hyaluronate (1.2 mg/mL) was added and incubated for 40 min at 37 °C. After incubation, the mixture was treated with 50 μL of 0.4 M NaOH and 100 μL of 0.2 M sodium borate and then incubated for 3 min in a boiling water bath. After cooling to room temperature, 1.4 mL of p-dimethylaminobenzaldehyde solution was added to the reaction mixture, being further incubated at 37 °C for 20 min. The resulting colored solution was measured at λ = 585 nm (PerkinElmer-Lambda 35, Brazil). The hyaluronidase inhibitory activity of each sample was calculated according to the following formula:(3) Hyaluronidase inhibitory activity %=A1−A2/A1×100 where A1 and A2 represent the absorbance in the absence and presence of the testing sample, respectively.

[7] = Cell viability, NRU assay; type: cell-based, human; settings: human, HaCaT cells (immortal human keratinocytes); NRU, HaCaT, surfactant in solution at 35.6 µg/mL, 24 h; read-out: cellular viability
Experimental: as §1, §2, §3

## CCCCCCCCCCCC(=O)NC(CCCNC(=N)N)C(=O)NCCCCCCCCCNC(=O)C(CCCNC(=N)N)NC(=O)CCCCCCCCCCC (stereo not drawn) [C9(LA)2, Bis (N^α-lauroyl arginine 1,3-nonane) diamide]
[1]
  anti-elastase activity (inhibition): 15.9%
[2]
  CMC (mM) Conductivity: 0.3 * mM
[3]
  viability at 24 h, 35.6 µg/mL: 60.7%
[4]
  CMC (mM) Fluorescence: 0.3 * mM
[5]
  CMC (mM) Surface Tension: 0.003 * mM
[5]; surface tension at the cmc
  γcmc: 34 * mN/m
[6]
  pKap: 9.4
Bovine hyaluronidase
  increase of hyaluronidase enzymatic activity: 29.9%
[7]
  viability at 24 h, 35.6 µg/mL: 60.7%
